Data from the supplement of paper PMC13380429.

Legend:
Conditions in all cases: 72 h
Caco-2 [1] = assay: cell viability relative to DMSO; higher = less toxic
Calu-3 [2] = assay: as above
HepG2 [3] = assay: as above
U2OS [4] = assay: as above
Vero E6 [5] = assay: as above
Caco-2 [6] = assay: relative viability EC50 (midpoint between 100% and the lowest measured viability); higher = less toxic
Calu-3 [7] = assay: as above
HepG2 [8] = assay: as above
U2OS [9] = assay: as above
Vero E6 [10] = assay: as above
Caco-2 [11] = assay: drug sensitivity score (DSS) for viability; higher = more toxic; extreme values may be limits of the assay
Calu-3 [12] = assay: as above
HepG2 [13] = assay: as above
U2OS [14] = assay: as above
Vero E6 [15] = assay: as above

SMILES	cell viability (Caco-2 [1]; 1 nM) [%]	cell viability (Caco-2 [1]; 10 nM) [%]	cell viability (Caco-2 [1]; 100 nM) [%]	cell viability (Caco-2 [1]; 1000 nM) [%]	cell viability (Caco-2 [1]; 10000 nM) [%]	cell viability (Calu-3 [2]; 1 nM) [%]	cell viability (Calu-3 [2]; 10 nM) [%]	cell viability (Calu-3 [2]; 100 nM) [%]	cell viability (Calu-3 [2]; 1000 nM) [%]	cell viability (Calu-3 [2]; 10000 nM) [%]	cell viability (HepG2 [3]; 1 nM) [%]	cell viability (HepG2 [3]; 10 nM) [%]	cell viability (HepG2 [3]; 100 nM) [%]	cell viability (HepG2 [3]; 1000 nM) [%]	cell viability (HepG2 [3]; 10000 nM) [%]	cell viability (U2OS [4]; 1 nM) [%]	cell viability (U2OS [4]; 10 nM) [%]	cell viability (U2OS [4]; 100 nM) [%]	cell viability (U2OS [4]; 1000 nM) [%]	cell viability (U2OS [4]; 10000 nM) [%]	cell viability (Vero E6 [5]; 1 nM) [%]	cell viability (Vero E6 [5]; 10 nM) [%]	cell viability (Vero E6 [5]; 100 nM) [%]	cell viability (Vero E6 [5]; 1000 nM) [%]	cell viability (Vero E6 [5]; 10000 nM) [%]	relative viability EC50 (Caco-2 [6]) [µM]	relative viability EC50 (Calu-3 [7]) [µM]	relative viability EC50 (HepG2 [8]) [µM]	relative viability EC50 (U2OS [9]) [µM]	relative viability EC50 (Vero E6 [10]) [µM]	drug sensitivity score (Caco-2 [11])	drug sensitivity score (Calu-3 [12])	drug sensitivity score (HepG2 [13])	drug sensitivity score (U2OS [14])	drug sensitivity score (Vero E6 [15])
CCC(=O)O[C@@H](O[P@@](=O)(CCCCc1ccccc1)CC(=O)N1C[C@H](C2CCCCC2)C[C@H]1C(=O)O)C(C)C [fosinopril]	100	95.3	99.3	92.7	103	98.3	89.7	103	85.7	100	103	92.7	93.7	103	97.9	103	97.2	105	97.7	104	99.8	97.8	92.7	95.4	99.6	> 10	> 10	> 10	> 10	> 10	0	0	0	0	0
COc1ccc2c3c1O[C@H]1C[C@@H](O)C=C[C@@]31CCN(C)C2 [galantamine]	90.2	104	106	112	108	96.9	91.2	103	104	99.9	84.5	105	85.8	102	100	101	95.4	96.5	104	104	102	99.1	103	90.8	93.6	> 10	> 10	> 10	> 10	> 10	0	0	0	0	0
CN1C2CCCC1CC(NC(=O)c1nn(C)c3ccccc13)C2 (stereo not given) [granisetron]	96.7	99.1	102	105	107	108	106	110	92.4	105	109	98.1	82.7	95.1	92.7	105	95.8	99.9	97.8	98.1	111	102	99.9	102	96.2	> 10	> 10	> 10	> 10	> 10	0	0	0	0	0
C=C[C@@H]1C[C@]1(NC(=O)[C@@H]1C[C@@H]2CN1C(=O)[C@H](C(C)(C)C)NC(=O)O[C@@H]1C[C@H]1CCCCCc1nc3ccc(OC)cc3nc1O2)C(=O)NS(=O)(=O)C1CC1 [grazoprevir]	101	98.5	105	93.9	80.8	103	107	105	94.7	103	106	92.5	99.6	103	106	93	100	96	91.6	90.4	96.3	98.3	97.1	95.3	103	> 10	> 10	> 10	> 10	> 10	1.2	0	0	0	0
CCC(=O)O[C@]1(C(=O)CCl)[C@@H](C)C[C@H]2[C@@H]3C[C@H](F)C4=CC(=O)C=C[C@]4(C)[C@@]3(F)[C@@H](O)C[C@@]21C [halobetasol-propionate]	105	105	104	108	99.4	81.1	82.1	77.5	93.1	80	106	93.9	102	98.1	111	96.7	102	95.8	101	93.6	99.9	101	104	102	106	> 10	> 10	> 10	> 10	> 10	0	0	0	0	0
CCN(CC)CCNc1ccc(CO)c2sc3ccccc3c(=O)c12 [hycanthone]	90	106	111	104	44.2	101	110	101	102	84.8	101	96.5	84.2	70	0.7	100	101	96.2	104	85.2	104	101	103	88.5	32.8	3.5	> 10	1.55	> 10	1.87	2.7	0.2	9.1	0.1	5.6
CCCC(=O)O[C@]1(C(=O)CO)CC[C@H]2[C@@H]3CCC4=CC(=O)CC[C@]4(C)[C@H]3[C@@H](O)C[C@@]21C [hydrocortisone-butyrate]	103	95.2	98.4	104	102	109	101	102	95.8	89.1	95.1	102	93.8	102	101	97	95.8	97.1	95.3	95.6	95.5	99	91.5	102	105	> 10	> 10	> 10	> 10	> 10	0	0.1	0	0	0
CC(N)Cc1ccc(O)cc1 (stereo not given) [hydroxyamphetamine]	107	92.8	94.2	98.7	99.5	92.5	94.4	98.7	100	107	102	103	93.4	93.7	96	98.6	101	96.2	102	94.5	99.9	102	99.4	95.1	104	> 10	> 10	> 10	> 10	> 10	0	0	0	0	0
O=c1c(O[C@@H]2O[C@H](CO)[C@H](O)[C@H](O)[C@H]2O)c(-c2ccc(O)c(O)c2)oc2cc(O)cc(O)c12 [hyperin]	104	93.3	99	107	105	96.9	86.3	102	104	98.9	84.8	95.7	87.3	103	97.9	99.5	97.3	101	98.4	100	98	97.2	94	97.7	108	> 10	> 10	> 10	> 10	> 10	0	0	0	0	0
CNC(=O)[C@H](Cc1c[nH]c2ccccc12)NC(=O)[C@@H](CC(=O)NO)CC(C)C [ilomastat]	94.1	104	102	96.6	102	102	98.6	107	97.3	90.4	107	90.5	104	90.5	103	97.6	98.2	85.8	102	84.7	97.4	97	95	93.2	88.7	> 10	> 10	> 10	> 10	> 10	0	0	0	0	0
CS(=O)(=O)Oc1ccc2c(NC(N)=O)c(C(=O)c3ccc(Cl)cc3Cl)oc2c1 [lirimilast]	98.5	96.3	102	108	110	98.8	106	91.4	101	104	94.3	89.7	106	94.7	95.9	95.5	99	97.9	107	102	98.6	94.7	97	84.4	99.6	> 10	> 10	> 10	> 10	> 10	0	0	0	0	0
